Each structure is given as a SMILES string.

In this experiment the target is T1, Gastrin/cholecystokinin type B receptor (Mus musculus, UniProt P56481).
T1 sequence (P56481 whole entry): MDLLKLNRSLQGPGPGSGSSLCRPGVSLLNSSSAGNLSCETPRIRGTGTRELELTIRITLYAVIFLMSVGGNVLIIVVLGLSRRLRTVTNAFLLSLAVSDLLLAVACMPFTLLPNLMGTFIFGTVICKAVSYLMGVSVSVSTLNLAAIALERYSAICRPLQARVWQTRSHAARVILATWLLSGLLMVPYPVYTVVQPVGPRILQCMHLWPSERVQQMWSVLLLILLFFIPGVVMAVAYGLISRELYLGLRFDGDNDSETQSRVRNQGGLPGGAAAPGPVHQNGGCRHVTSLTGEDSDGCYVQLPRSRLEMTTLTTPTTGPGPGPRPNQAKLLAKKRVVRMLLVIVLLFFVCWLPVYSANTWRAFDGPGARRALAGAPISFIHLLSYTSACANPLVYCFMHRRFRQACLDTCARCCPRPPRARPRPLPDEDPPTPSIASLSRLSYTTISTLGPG
As to the kind of experiment: Cholecystokinin type B receptor binding assay performed on homogenized cerebral cortex from male mouse. The experiment is classed as tissue-based.
`O=C(O)CCC(=O)N[C@@H](CNC(=O)[C@H](Cc1c[nH]c2ccccc12)NC(=O)OC1C2CC3CC(C2)CC1C3)c1ccccc1` (some centres not stated) had a Ki of 977 nM.
Consider `C[C@](Cc1c[nH]c2ccccc12)(NC(=O)OC1C2CC3CC(C2)CC1C3)C(=O)N[C@H](CO)Cc1ccccc1` (some centres not stated), for which affinity was put at a Ki of 6.03 nM.
As to `C[C@@H]1CCCC[C@H]1OC(=O)N[C@](C)(Cc1c[nH]c2ccccc12)C(=O)NC[C@H](NC(=O)CCC(=O)O)c1ccccc1`, the affinity, expressed as Ki, was 3.72 nM.
Under `O=C(O)CCC(=O)NC(CNC(=O)[C@@H](Cc1c[nH]c2ccccc12)NC(=O)OC1C2CC3CC(C2)CC1C3)c1ccccc1` (some centres not stated) stands 355 nM; under `CC1(C)C2CCC1(C)[C@@H](OC(=O)N[C@@H](Cc1c[nH]c3ccccc13)C(=O)NC[C@H](NC(=O)CCC(=O)O)c1ccccc1)C2` (some centres not stated), 398 nM; under `CC1(C)C2CCC1(C)[C@@H](OC(=O)N[C@H](Cc1c[nH]c3ccccc13)C(=O)NC[C@H](NC(=O)CCC(=O)O)c1ccccc1)C2` (some centres not stated), 302 nM.
In the case of `C[C@](Cc1c[nH]c2ccccc12)(NC(=O)OC12CC3CC(CC(C3)C1)C2)C(=O)N[C@H](CO)Cc1ccccc1`, the affinity corresponds to a Ki of 20.4 nM.
`CC1(C)C2CCC1(C)[C@@H](OC(=O)N[C@](C)(Cc1c[nH]c3ccccc13)C(=O)NC[C@H](NC(=O)/C=C/C(=O)O)c1ccccc1)C2` (some centres not stated) gave a Ki of 2.19 nM.
On to `CC(Cc1c[nH]c2ccccc12)(NC(=O)O[C@H]1CC2CCC1(C)C2(C)C)C(=O)NCCc1ccccc1` (some centres not stated), for which the inhibition constant Ki is 126 nM.
The compound `CC(Cc1c[nH]c2ccccc12)(NC(=O)OC12CC3CC(CC(C3)C1)C2)C(=O)NCCc1ccccc1` (configuration not stated) had an inhibitory constant (Ki) of 191 nM.
With `C[C@](Cc1c[nH]c2ccccc12)(NC(=O)OC1C2CC3CC(C2)CC1C3)C(=O)N[C@H](CNC(=O)CCC(=O)O)Cc1ccccc1` (some centres not stated) the figure was 3.98 nM.
`C[C@@H]1CCCC[C@H]1OC(=O)N[C@](C)(Cc1c[nH]c2ccccc12)C(=O)N[C@H](CO)Cc1ccccc1` (stereo in doubt; 28): the inhibition constant Ki was 8.91 nM.
With `C[C@@H]1CCCC[C@H]1OC(=O)N[C@](C)(Cc1c[nH]c2ccccc12)C(=O)N[C@H](CNC(=O)CCC(=O)O)Cc1ccccc1` the figure was 12.3 nM; with `O=C(N[C@H](Cc1c[nH]c2ccccc12)C(=O)N[C@H](CO)Cc1ccccc1)OC1C2CC3CC(C2)CC1C3` (stereo in doubt; 9), 813 nM.
Take `CC1(C)C2CCC1(C)[C@@H](OC(=O)N[C@H](Cc1c[nH]c3ccccc13)C(=O)NC[C@H](NC(=O)/C=C/C(=O)O)c1ccccc1)C2` (some centres not stated): the inhibition constant (Ki) is 81.3 nM.
Take `O=C(O)C[C@@H](Cc1ccccc1)NC(=O)[C@@H](Cc1c[nH]c2ccccc12)NC(=O)OC1C2CC3CC(C2)CC1C3` (some centres not stated): the affinity, expressed as Ki, was 138 nM.
For the compound `O=C(O)C[C@@H](Cc1ccccc1)NC(=O)[C@H](Cc1c[nH]c2ccccc12)NC(=O)OC1C2CC3CC(C2)CC1C3` (some centres not stated), the Ki is 93.3 nM.
Turning to `C[C@](Cc1c[nH]c2ccccc12)(NC(=O)OC1C2CC3CC(C2)CC1C3)C(=O)NC[C@H](NC(=O)/C=C/C(=O)O)c1ccccc1` (some centres not stated), the Ki is 0.513 nM.
In the case of `C[C@@H]1CCCC[C@H]1OC(=O)N[C@](C)(Cc1c[nH]c2ccccc12)C(=O)N[C@H](CNC(=O)/C=C/C(=O)O)Cc1ccccc1`, affinity was put at a Ki of 1.15 nM.
With `C[C@@H]1CCCC[C@H]1OC(=O)NC(C)(Cc1c[nH]c2ccccc12)C(=O)NCCc1ccccc1` (some centres not stated) the figure was 135 nM; with `O=C(N[C@H](Cc1c[nH]c2ccccc12)C(=O)N[C@H](CO)Cc1ccccc1)OC1C2CC3CC(C2)CC1C3` (stereo in doubt; 10), 2090 nM; with `C[C@@](Cc1c[nH]c2ccccc12)(NC(=O)OC1C2CC3CC(C2)CC1C3)C(=O)N[C@H](CNC(=O)CCC(=O)O)Cc1ccccc1` (some centres not stated), 166 nM.
Compound `CC1(C)[C@H]2CC[C@@]1(C)[C@@H](OC(=O)N[C@](C)(Cc1c[nH]c3ccccc13)C(=O)NC[C@H](NC(=O)CCC(=O)O)c1ccccc1)C2` showed an inhibitory constant (Ki) of 2.04 nM.
Under `C[C@@H]1CCCC[C@H]1OC(=O)N[C@](C)(Cc1c[nH]c2ccccc12)C(=O)NC[C@H](NC(=O)/C=C/C(=O)O)c1ccccc1` stands 3.89 nM; under `C[C@](Cc1c[nH]c2ccccc12)(NC(=O)OC1C2CC3CC(C2)CC1C3)C(=O)N[C@H](CNC(=O)/C=C/C(=O)O)Cc1ccccc1` (some centres not stated), 0.708 nM.
Compound `CC1(C)C2CCC1(C)C(OC(=O)N[C@](C)(Cc1c[nH]c3ccccc13)C(=O)N[C@H](CO)Cc1ccccc1)C2` (some centres not stated) gave an inhibition constant Ki of 15.5 nM.
`C[C@@H]1CCCC[C@H]1OC(=O)N[C@](C)(Cc1c[nH]c2ccccc12)C(=O)N[C@H](CO)Cc1ccccc1` (stereo in doubt; 11) showed an inhibitory constant (Ki) of 15.1 nM.

One may read the Ki as a dissociation constant, usually derived from enzyme kinetics or from competition with a known ligand. The low end stands for higher affinity, the high end for lower affinity.
